From patent publication US12582654B2, “Cyano-substituted pyridine and cyano-substituted pyrimidine compound and preparation method therefor and application thereof” (BEIJING SCITECH-MQ PHARMACEUTICALS LIMITED, priority 2019, dated 2026)

How the values were obtained:
FGFR4 kinase = FGFR4 kinase (Homo sapiens, UniProt P22455); experiment: Inhibition of FGFR4 kinase activity (ULight-labeled JAK-1 peptide, EU665/EU615 reading); format: biochemical; conditions: FGFR4 kinase 3.85 nM, ATP 100 μM, enzymatic reaction 2 hours
Experimental: (§1) Assay of activity of small molecule compounds on inhibiting FGFR4 kinase and FGFR4 V550L mutant kinase. The assay method was as follows:
(§2) 1) Dilution of Compounds:
(§3) In a 96-well plate a, the compounds were serially diluted 3-fold with DMSO to form 11 concentrations, and the 12th concentration was pure DMSO (as a positive control); In a new 96-well plate b, the above solutions were diluted 25-fold with ultrapure water (DMSO concentration was 4%).
(§4) 2) Transferring Compounds to a 384-Well Plate:
(§5) The above solutions of compounds diluted with ultrapure water in the 96-well plate b were pipetted into corresponding wells of a 384-well plate.
(§6) 3) Adding 4× kinase solution: 2.5 μl of the above 4× kinase solutions were pipetted with a multi-channel pipette into corresponding reaction wells of the 384-well plate, and the mixture was mixed well and pre-reacted at room temperature for 5 minutes.
(§7) 4) Adding 2× substrate/ATP mixture: 5 μl of the above 2× substrate/ATP mixtures were pipetted with a multi-channel pipette into corresponding reaction wells of the 384-well plate.
(§8) 5) Negative control: negative control wells were set up in the 384-well plate by adding 2.5 μl of 4× substrate, 2.5 μl of 4× enzyme solution, 2.5 μl of 1× kinase Assay Buffer and 2.5 μl of ultrapure water containing 4% DMSO to each well.
(§9) 6) Centrifuging, mixing well, and reacting at room temperature in the dark for 2 hours.
(§10) 7) Terminating the Enzymatic Reaction:
(§11) 5 μl of the above 4× stop solutions were pipetted into corresponding wells of the 384-well plate, and the mixture was centrifuged, mixed well, and then reacted at room temperature for 5 minutes.
(§12) 8) Development of the Reaction:
(§13) 5 μl of the above 4× detection solutions were pipetted into corresponding wells of the 384-well plate, and the mixture was centrifuged, mixed well, and then reacted at room temperature for 1 hour.
(§14) 9) The 384-well plate was placed into a plate reader, and the signal was detected using the appropriate program.
(§15) 10) Analysis of IC50: Reading of well=10000*EU665 value/EU615 value Inhibition rate=(reading of positive control well−reading of assay well)/(reading of positive control well−reading of negative control well)*100%
(§16) The corresponding IC50 can be calculated by inputting the drug concentrations and corresponding inhibition rates into GraphPad Prism 5 and processing.
Assay Conditions for Screening FGFR4 Kinase Activity Inhibitory Molecule:
The final concentration of FGFR4 kinase in the reaction system was 3.85 nM, the final concentration of ATP was 100 μM, the final concentration of substrate ULight™-labeled JAK-1 (Tyr1023) Peptide was 100 nM, and the time for enzymatic reaction was 2 hours.
The highest final concentration of the compound in the reaction system was 2.5 μM. After serial 3-fold dilution, there were 11 concentrations in total, and the lowest final concentration was 0.042 nM. The final concentration of DMSO was 1%.

FGFR4 V550L kinase = FGFR4 V550L kinase (Homo sapiens, UniProt P22455, V550L); experiment: Inhibition of FGFR4 V550L mutant kinase activity (ULight-labeled PolyGT, EU665/EU615 reading); format: biochemical; conditions: FGFR4 V550L kinase 1 nM, ATP 10 μM, enzymatic reaction 2 hours
Experimental: as §1, §2, §3, §4, §5, §6, §7, §8, §9, §10, §11, §12, §13, §14, §15, §16
Assay Conditions for Screening FGFR4 V550L Kinase Activity Inhibitory Molecule:
The final concentration of FGFR4 V550L kinase in the reaction system was 1 nM, the final concentration of ATP was 10 μM, the final concentration of substrate ULight™-labeled PolyGT was 100 nM, and the time for enzymatic reaction was 2 hours.
The highest final concentration of the compound in the reaction system was 2.5 μM. After seral 3-fold dilution, there were 11 concentrations in total, and the lowest final concentration was 0.042 nM. The final concentration of DMSO was 1%.

Ba/F3 ETV6-FGFR4 cells = molecular target: T1, Ba/F3 ETV6-FGFR4 cells (Homo sapiens, UniProt P22455); experiment: Inhibition of cell proliferation (CCK-8), Ba/F3 ETV6-FGFR4 cells; format: cell-based; conditions: 72 hours of incubation, read-out: Ba/F3 ETV6-FGFR4 IC50
T1 construct: fused on or other part: N-terminal part of ETV6 (TEL), the oligomerising partner that makes the FGFR4 kinase constitutively active; P41212 (Transcription factor ETV6)
Experimental: (§17) Compounds were assayed for inhibiting cell proliferation, and the specific method was as follows: • 1. Cells were cultured to a logarithmic growth phase, pipetted evenly, transferred to a 15 mL centrifuge tube, and centrifuged at 1000 rpm at room temperature for 4 minutes; • 2. The supernatant was discarded; 5 mL of complete medium was added and pipetted evenly; 10 μL of cell suspension was weighed, mixed well with 10 μL of 0.4% trypan blue, and counted under a cell counter; the proportion of living cells was ensured to be above 90%; • 3. The cell suspension was seeded into a 96-well plate (80 μL of cell suspension per well) according to the conditions shown in Table 5; in the outer 36 wells of the 96-well plate, no cells were added but only sterile water was added; only the inner 60 wells were used for cell assay and control; • 4. 5× compound dilution: the compounds were serially diluted 4-fold to give a total of 9 concentrations; 80-fold overall dilution was completed with complete medium, the resulting concentration was 5 times the final drug concentration, and DMSO concentration was 1.25%; • 5. 20 μL of the corresponding compounds with different concentrations were added to each well of assay wells of the 96-well plate; 20 μL of complete medium was added to positive and negative control wells and shaken well; and the final concentration of DMSO in each well was 0.25%; • 6. After 72 hours of incubation, 10 μL of CCK-8 reagent was added to each well and further incubated at 37° C. for 1-2 hours; and the OD value was read at 450 nm; 7. Cell survival rate (%)=[(As−Ab)/(Ac−Ab)]*100% • As: Assay well (medium containing cells, CCK-8, compound) • Ac: Control well (medium containing cells, CCK-8) • Ab: Blank well (medium without cell and compound, CCK-8) • 8. The values were imported into Graphpad Prism 5 software for IC50 calculation.

[1] = molecular target: T2, Ba/F3 ETV6-FGFR4-V550L cells (Homo sapiens, UniProt P22455, V550L, cells depend on it); experiment: Inhibition of cell proliferation (CCK-8), Ba/F3 ETV6-FGFR4-V550L cells; format: cell-based; conditions: 72 hours of incubation, read-out: Ba/F3 ETV6-FGFR4-V550L IC50
T2 construct: fused on or other part: N-terminal part of ETV6 (TEL), the oligomerising partner of the fusion; already named as the first entry; P41212 (Transcription factor ETV6)
Experimental: as §17

T2 sequence (P22455 whole entry V550L, the tested form may be a part): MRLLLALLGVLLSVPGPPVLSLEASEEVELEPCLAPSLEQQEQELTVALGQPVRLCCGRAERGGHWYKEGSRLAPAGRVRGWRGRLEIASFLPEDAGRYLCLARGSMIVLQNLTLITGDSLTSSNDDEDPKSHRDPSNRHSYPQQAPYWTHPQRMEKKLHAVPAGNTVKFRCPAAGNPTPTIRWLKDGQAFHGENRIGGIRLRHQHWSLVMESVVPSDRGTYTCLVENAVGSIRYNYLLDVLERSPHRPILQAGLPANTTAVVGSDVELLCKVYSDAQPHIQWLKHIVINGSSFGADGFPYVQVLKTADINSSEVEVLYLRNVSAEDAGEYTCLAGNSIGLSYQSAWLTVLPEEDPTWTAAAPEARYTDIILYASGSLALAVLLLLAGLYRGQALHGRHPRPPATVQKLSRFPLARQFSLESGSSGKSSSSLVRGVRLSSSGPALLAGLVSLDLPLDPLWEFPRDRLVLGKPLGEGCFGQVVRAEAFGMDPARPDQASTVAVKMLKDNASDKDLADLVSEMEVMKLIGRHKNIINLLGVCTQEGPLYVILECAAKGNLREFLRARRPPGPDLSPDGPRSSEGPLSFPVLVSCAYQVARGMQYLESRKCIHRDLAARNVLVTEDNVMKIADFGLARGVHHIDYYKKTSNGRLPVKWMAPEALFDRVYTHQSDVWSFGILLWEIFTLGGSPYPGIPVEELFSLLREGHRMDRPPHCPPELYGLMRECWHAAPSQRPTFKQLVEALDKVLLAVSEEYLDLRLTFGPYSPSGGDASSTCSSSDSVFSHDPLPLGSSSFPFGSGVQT
T1 sequence (P22455 whole entry, change not shown, the tested form may be a part): as the sequence (P22455 whole entry V550L, the tested form may be a part) above, with L550V counted along it
FGFR4 V550L kinase, sequence (P22455 22-802 V550L): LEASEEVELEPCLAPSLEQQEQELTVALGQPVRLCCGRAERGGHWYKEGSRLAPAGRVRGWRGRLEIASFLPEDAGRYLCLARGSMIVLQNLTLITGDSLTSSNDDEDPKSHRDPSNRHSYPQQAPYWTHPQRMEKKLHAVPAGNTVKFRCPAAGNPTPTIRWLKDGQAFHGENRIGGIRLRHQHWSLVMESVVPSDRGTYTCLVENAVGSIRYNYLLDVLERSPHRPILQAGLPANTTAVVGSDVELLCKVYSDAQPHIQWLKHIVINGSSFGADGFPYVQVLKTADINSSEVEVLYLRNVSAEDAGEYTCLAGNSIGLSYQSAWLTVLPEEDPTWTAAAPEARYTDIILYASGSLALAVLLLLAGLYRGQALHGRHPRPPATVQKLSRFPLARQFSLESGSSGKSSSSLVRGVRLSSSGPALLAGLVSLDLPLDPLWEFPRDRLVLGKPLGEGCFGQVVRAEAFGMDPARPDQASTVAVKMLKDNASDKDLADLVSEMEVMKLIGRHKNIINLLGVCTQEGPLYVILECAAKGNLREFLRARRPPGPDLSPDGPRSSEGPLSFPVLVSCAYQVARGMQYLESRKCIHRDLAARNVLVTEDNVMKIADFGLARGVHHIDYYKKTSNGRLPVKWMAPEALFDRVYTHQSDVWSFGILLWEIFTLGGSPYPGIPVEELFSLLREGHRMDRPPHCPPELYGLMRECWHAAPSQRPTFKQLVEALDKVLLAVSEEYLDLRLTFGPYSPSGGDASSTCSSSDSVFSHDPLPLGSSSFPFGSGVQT
FGFR4 kinase, sequence (P22455 22-802): as the sequence (P22455 22-802 V550L) above, with L529V counted along it

| IC50 (FGFR4 kinase) [nM] | IC50 (FGFR4 V550L kinase) [nM] | GI50 (Ba/F3 ETV6-FGFR4 cells) [nM] | GI50 [1] [nM] | SMILES |
| --- | --- | --- | --- | --- |
| 10 to 50 | ≤ 10 | ≤ 10 | ≤ 10 | C=CC(=O)Nc1cc(N2CCN(C)CC2)ccc1Nc1ncc(C#N)c(Nc2ccccc2OC(C)C)n1 [Example 1, N-(2-((5-cyano-4-((2-isopropoxyphenyl)amino)pyrimidin-2-yl)amino)-5-(4-methylpiperazin-1-yl)phenyl)acrylamide] |
| 10 to 50 | ≤ 10 | ≤ 10 | ≤ 10 | C=CC(=O)Nc1cc(N2CCC(N(C)C)CC2)ccc1Nc1ncc(C#N)c(Nc2ccccc2OC(C)C)n1 [Example 2, N-(2-((5-cyano-4-((2-isopropoxyphenyl)amino)pyrimidin-2-yl)amino)-5-(4-(dimethylamino)piperidin-1-yl)phenyl) acrylamide] |
| 10 to 50 | ≤ 10 | ≤ 10 | ≤ 10 | C=CC(=O)Nc1cc(N2CCC(N3CCCC3)CC2)ccc1Nc1ncc(C#N)c(Nc2ccccc2OC(C)C)n1 [Example 3, N-(2-((5-cyano-4-((2-isopropoxyphenyl)amino)pyrimidin-2-yl)amino)-5-(4-(pyrrolidin-1-yl)piperidin-1-yl)phenyl) acrylamide] |
| 10 to 50 | ≤ 10 | ≤ 10 | ≤ 10 | C=CC(=O)Nc1cc(N2CCC(N3CCCCC3)CC2)ccc1Nc1ncc(C#N)c(Nc2ccccc2OC(C)C)n1 [Example 4, N-(5-([1,4′-bipiperidin]-1′-yl)-2-((5-cyano-4-((2-isopropoxyphenyl)amino)pyrimidin-2-yl)amino)phenyl) acrylamide] |
| 50 to 100 | 10 to 50 | ≤ 10 | ≤ 10 | C=CC(=O)Nc1cc(N2CCC(N3CCOCC3)CC2)ccc1Nc1ncc(C#N)c(Nc2ccccc2OC(C)C)n1 [Example 5, N-(2-((5-cyano-4-((2-isopropoxyphenyl)amino)pyrimidin-2-yl)amino)-5-(4-morpholinopiperidin-1-yl)phenyl) acrylamide] |
| ≤ 10 | ≤ 10 | ≤ 10 | ≤ 10 | C=CC(=O)Nc1cc(N2CCC(N3CCN(C)CC3)CC2)ccc1Nc1ncc(C#N)c(Nc2ccccc2OC(C)C)n1 [Example 6, N-(2-((5-cyano-4-((2-isopropoxyphenyl)amino)pyrimidin-2-yl)amino)-5-(4-(4-methylpiperazin-1-yl)piperidin-1-yl)phenyl) acrylamide] |
| 50 to 100 | 10 to 50 | ≤ 10 | 10 to 50 | C=CC(=O)Nc1cc(N2CCN(C)CC2)c(C)cc1Nc1ncc(C#N)c(Nc2ccccc2OC(C)C)n1 [Example 7, N-(2-((5-cyano-4-((2-isopropoxyphenyl)amino)pyrimidin-2-yl)amino)-4-methyl-5-(4-methylpiperazin-1-yl)phenyl) acrylamide] |
| 10 to 50 | ≤ 10 | ≤ 10 | ≤ 10 | C=CC(=O)Nc1cc(N2CCN(CC)CC2)c(C)cc1Nc1ncc(C#N)c(Nc2ccccc2OC(C)C)n1 [Example 8, N-(2-((5-cyano-4-((2-isopropoxyphenyl)amino)pyrimidin-2-yl)amino)-5-(4-ethylpiperazin-1-yl)-4-methylphenyl) acrylamide] |
| 10 to 50 | 10 to 50 | – | – | C=CC(=O)Nc1cc(N2CCC(N(C)C)CC2)c(C)cc1Nc1ncc(C#N)c(Nc2ccccc2OC(C)C)n1 [Example 9, N-(2-((5-cyano-4-((2-isopropoxyphenyl)amino)pyrimidin-2-yl)amino)-5-(4-(dimethylamino)piperidin-1-yl)-4-methylphenyl) acrylamide] |
| 10 to 50 | 10 to 50 | ≤ 10 | 10 to 50 | C=CC(=O)Nc1cc(N2CCC(N3CCCC3)CC2)c(C)cc1Nc1ncc(C#N)c(Nc2ccccc2OC(C)C)n1 [Example 10, N-(2-((5-cyano-4-((2-isopropoxyphenyl)amino)pyrimidin-2-yl)amino)-4-methyl-5-(4-(pyrrolidin-1-yl)piperidin-1-yl)phenyl) acrylamide] |
| 10 to 50 | – | 10 to 50 | 10 to 50 | C=CC(=O)Nc1cc(N2CCC(N3CCCCC3)CC2)c(C)cc1Nc1ncc(C#N)c(Nc2ccccc2OC(C)C)n1 [Example 11, N-(5-([1,4‘- bipiperidin]-1′-yl)-2-((5-cyano-4-((2-isopropoxyphenyl)amino)pyrimidin-2-yl)amino)-4-methylphenyl) acrylamide] |
| 10 to 50 | 10 to 50 | – | – | C=CC(=O)Nc1cc(N2CCC(N3CCOCC3)CC2)c(C)cc1Nc1ncc(C#N)c(Nc2ccccc2OC(C)C)n1 [Example 12, N-(2-((5-cyano-4-((2-isopropoxyphenyl)amino)pyrimidin-2-yl)amino)-4-methyl-5-(4-morpholinopiperidin-1-yl)phenyl) acrylamide] |
| – | 10 to 50 | ≤ 10 | 10 to 50 | C=CC(=O)Nc1cc(N2CCN(CC)CC2)ccc1Nc1ncc(C#N)c(Nc2ccc(C#N)cc2OC(C)C)n1 [Example 32, N-(2-((5-cyano-4-((4-cyano-2-isopropoxyphenyl)amino)pyrimidin-2-yl)amino)-5-(4-ethylpiperazin-1-yl)phenyl) acrylamide] |
| 10 to 50 | – | – | – | C=CC(=O)Nc1cc(N2CCC(N(C)C)CC2)ccc1Nc1cc(Nc2ccccc2OC(C)C)c(C#N)cn1 [Example 82, N-(2-((5-cyano-4-((2-isopropoxyphenyl)amino)pyridin-2-yl)amino)-5-(4-(dimethylamino)piperidin-1-yl)phenyl)acrylamide] |
| 10 to 50 | – | – | – | C=CC(=O)Nc1cc(N2CCC(N3CCN(C)CC3)CC2)ccc1Nc1cc(Nc2ccccc2OC(C)C)c(C#N)cn1 [Example 83, N-(2-((5-cyano-4-((2-isopropoxyphenyl)amino)pyridin-2-yl)amino)-5-(4-(4-methylpiperazin-1-yl)piperidin-1-yl)phenyl)acrylamide] |
| 10 to 50 | – | – | – | C=CC(=O)Nc1cc(N2CCN(CC)CC2)ccc1Nc1cc(Nc2ccccc2OC(C)C)c(C#N)cn1 [Example 84, N-(2-((5-cyano-4-((2-isopropoxyphenyl)amino)pyridin-2-yl)amino)-5-(4-ethylpiperazin-1-yl)phenyl)acrylamide] |
